Tests used:
NLRP3 [1] = target: T1, NLRP3 (Homo sapiens, UniProt Q96P20); test: Human whole blood IL-1β release assay; type: cell-based; set-up: Human whole blood in Li-heparin tubes was obtained from healthy donors; from tissue; host or cells: human whole blood from healthy volunteer donors, LPS-primed, nigericin-stimulated; conditions: 1 μg/ml LPS, compound 3 hrs, nigericin 10 μM 1 hr, IL-1β in supernatant (AlphaLisa), read-out: HWB IC50
Procedure: For systemic delivery, the ability to inhibit NLRP3 when the compounds are present within the bloodstream is of great importance. For this reason, the NLRP3 inhibitory activity of a number of compounds in human whole blood was investigated in accordance with the following protocol.
Human whole blood in Li-heparin tubes was obtained from healthy donors from a volunteer donor panel. • 1. Plate out 80 μl of whole blood containing 1 μg/ml of LPS in 96-well, clear bottom cell culture plate (Corning #3585) • 2. Add 10 μl compound (8 points half-log dilution with 10 μM top dose) or vehicle (DMSO 0.1% FAC) to the appropriate wells • 3. Incubate for 3 hrs at 37° C., 5% CO2 • 4. Add 10 μl nigericin (Sigma #N7143) (10 μM FAC) to all wells • 5. Incubate for 1 hr at 37° C., 5% CO2 • 6. At the end of the incubation period, spin plates at 300×g for 5 mins to pellet cells and remove 20 μl of supernatant and add to 96-well v-bottom plates for IL-1β analysis (note: these plates containing the supernatants can be stored at −80° C. to be analysed at a later date) • 7. IL-1β was measured according to the manufacturer protocol (Perkin Elmer-AlphaLisa IL-1 Kit AL220F-5000) • 8. IC50 data is fitted to a non-linear regression equation (log inhibitor vs response-variable slope 4-parameters)

NLRP3 [2] = target: T1, NLRP3; test: THP-1 cells pyroptosis assay; type: cell-based; set-up: Seed THP-1 cells (25,000 cells/well) containing 1.0 μg/ml LPS; host or cells: THP-1 cells, LPS-primed, nigericin-stimulated; conditions: 1.0 μg/ml LPS, compound 3 hrs, nigericin 5 μM 1 hr, resazurin readout
Procedure: THP-1 cells (ATCC #TIB-202) were grown in RPMI containing L-glutamine (Gibco #11835) supplemented with 1 mM sodium pyruvate (Sigma #S8636) and penicillin (100 units/ml)/streptomycin (0.1 mg/ml) (Sigma #P4333) in 10% Fetal Bovine Serum (FBS) (Sigma #F0804). The cells were routinely passaged and grown to confluency (˜10^6 cells/ml). On the day of the experiment, THP-1 cells were harvested and resuspended into RPMI medium (without FBS). The cells were then counted and viability (>90%) checked by Trypan blue (Sigma #T8154). Appropriate dilutions were made to give a concentration of 625,000 cells/ml. To this diluted cell solution was added LPS (Sigma #L4524) to give a […] Final Assay Concentration (FAC). 40 μl of the final preparation was aliquoted into each well of a 96-well plate. The plate thus prepared was used for compound screening.
The following method step-by-step assay was followed for compound screening. • 1. Seed THP-1 cells (25,000 cells/well) containing 1.0 μg/ml LPS in 40 μl of RPMI medium (without FBS) in 96-well, black walled, clear bottom cell culture plates coated with poly-D-lysine (VWR #734-0317) • 2. Add 5 μl compound (8 points half-log dilution, with 10 μM top dose) or vehicle (DMSO 0.1% FAC) to the appropriate wells • 3. Incubate for 3 hrs at 37° C., 5% CO2 • 4. Add 5 μl nigericin (Sigma #N7143) (FAC 5 μM) to all wells • 5. Incubate for 1 hr at 37° C., 5% CO2 • 6. At the end of the incubation period, spin plates at 300×g for 3 mins and remove supernatant • 7. Then add 50 μl of resazurin (Sigma #R7017) (FAC 100 μM resazurin in RPMI medium without FBS) and incubate plates for a further 1-2 hrs at 37° C. and 5% CO2 • 8. Plates were read in an Envision reader at Ex 560 nm and Em 590 nm • 9. IC50 data is fitted to a non-linear regression equation (log inhibitor vs response-variable slope 4-parameters) 96-well Plate Map

T1 sequence (Q96P20 whole entry): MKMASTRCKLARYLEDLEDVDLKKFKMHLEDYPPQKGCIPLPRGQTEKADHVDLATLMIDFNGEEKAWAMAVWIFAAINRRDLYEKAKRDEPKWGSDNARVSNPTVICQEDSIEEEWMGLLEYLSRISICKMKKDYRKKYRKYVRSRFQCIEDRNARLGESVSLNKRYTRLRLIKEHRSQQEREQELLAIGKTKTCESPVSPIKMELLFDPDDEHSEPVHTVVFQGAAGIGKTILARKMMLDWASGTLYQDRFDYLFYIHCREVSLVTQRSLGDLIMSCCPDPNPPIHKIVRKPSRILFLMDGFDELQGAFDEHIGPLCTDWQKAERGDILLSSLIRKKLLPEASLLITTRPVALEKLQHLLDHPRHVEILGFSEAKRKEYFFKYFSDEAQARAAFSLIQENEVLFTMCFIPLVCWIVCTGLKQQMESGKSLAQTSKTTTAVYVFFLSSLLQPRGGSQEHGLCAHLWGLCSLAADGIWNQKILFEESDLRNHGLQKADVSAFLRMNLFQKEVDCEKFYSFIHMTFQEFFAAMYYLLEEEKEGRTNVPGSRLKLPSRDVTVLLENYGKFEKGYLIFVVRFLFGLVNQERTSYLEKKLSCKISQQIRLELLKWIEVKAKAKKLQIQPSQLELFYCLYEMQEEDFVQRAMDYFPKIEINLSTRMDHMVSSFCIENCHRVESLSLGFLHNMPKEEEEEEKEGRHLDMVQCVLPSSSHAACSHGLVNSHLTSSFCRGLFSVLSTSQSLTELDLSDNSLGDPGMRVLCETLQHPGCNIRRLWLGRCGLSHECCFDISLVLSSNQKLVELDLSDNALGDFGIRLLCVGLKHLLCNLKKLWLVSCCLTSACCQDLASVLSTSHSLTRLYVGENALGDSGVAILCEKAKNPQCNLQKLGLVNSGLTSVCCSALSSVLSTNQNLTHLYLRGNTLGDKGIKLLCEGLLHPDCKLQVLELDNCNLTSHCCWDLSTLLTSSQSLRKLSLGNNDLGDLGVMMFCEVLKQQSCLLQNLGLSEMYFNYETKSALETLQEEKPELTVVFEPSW

| SMILES | IC50 (NLRP3 [1]) [nM] | IC50 (NLRP3 [2]) [nM] |
| --- | --- | --- |
| O=S1(=O)c2nnc([nH]2)Nc2c(ccc3c2CCC3)-c2ccnc(c2)OCCN2CCCC23CCN1CC3 [Example 5, 8-oxa-28λ^6-thia-5,10,23,25,26,29,34-heptazaheptacyclo-[27.2.2.1^9,13.1^24,27.0^1,5.0^14,22.0^17,21]pentatriaconta-9(35),10,12,14,16,21,24,26-octaene 28,28-dioxide] | ≤ 500 | ≤ 500 |
| CN1CCOc2cc(ccn2)-c2ccc3c(c2Nc2nnc([nH]2)S(=O)(=O)N2CC(C1)C2)CCC3 [Example 11, 21-methyl-24-oxa-16λ^6-thia-11,13,14,17,21,26,31-heptaazahexacyclo-[23.3.1.1^12,15.1^17,19.0^2,10.0^5,9]hentriaconta-1(28),2,4,9,12,14,25(29),26-octaene-16,16-dioxide] | ≤ 500 | ≤ 100 |
| CN1CCOc2cc(ccn2)-c2ccc3c(c2Nc2nnc([nH]2)S(=O)(=O)N2CC[C@@H](C1)C2)CCC3 [Example 12, (20S)-22-methyl-25-oxa-16λ^6-thia-11,13,14,17,22,27,32-heptaazahexacyclo[24.3.1.1^12,15.1^17,20.0^2,10.0^5,9]dotriaconta-1(29),2,4,9,12,14,26(30),27-octaene-16,16-dioxide] | ≤ 500 | ≤ 500 |
| CN1CCCOc2cc(ccn2)-c2ccc3c(c2Nc2nnc([nH]2)S(=O)(=O)N2CCC1CC2)CCC3 [Example 1, 26-methyl-22-oxa-2λ^6-thia-1,4,5,7,20,26,33-heptazahexacyclo-[25.2.2.1^3,6.1^17,21.0^8,16.0^9,13]tritriaconta-3,6(33),8,13,15,17,19,21(32)-octaene 2,2-dioxide] | ≤ 5000 | ≤ 5000 |

Further lines, results first:

| IC50 (NLRP3 [1]) [nM] | IC50 (NLRP3 [2]) [nM] | SMILES |
| --- | --- | --- |
| ≤ 500 | ≤ 100 | CC1(C)COc2cc(ccn2)-c2ccc3c(c2Nc2nnc([nH]2)S(=O)(=O)N2CC4(CCN1C4)C2)CCC3 [Example 10, 23,23-dimethyl-25-oxa-16λ^6-thia-11,13,14,17,22,27,33-heptaazaheptacyclo[24.3.1.1^12,15.1^17,19.1^19,22.0^2,10.0^5,9]tritriaconta-1(29),2,4,9,12,14,26(30),27-octaene-16,16-dioxide] |
| ≤ 100 | ≤ 100 | O=S1(=O)c2nnc([nH]2)Nc2c(ccc3c2CCC3)-c2ccnc(c2)OCCCN2CCC3(C2)CN1C3 [Example 2, 26-oxa-16λ^6-thia-11,13,14,17,22,28,34-heptazaheptacyclo-[25.3.1.1^12,15.1^17,19.1^19,22.0^2,10.0^5,9]tetratriaconta-1(30),2,4,9,12,14,27(31),28-octaene 16,16-dioxide] |

— US20230121952A1 (INFLAZOME LIMITED, priority 2020, published 2023)
